Key:
ACOX1 = ACOX1 mRNA expression by real-time quantitative PCR in HepG2; format: cell-based, human; details: 1 μM, 6 hours, HepG2 (FIG. 5D)
From the text: Peroxisome proliferation factor activated receptor (PPAR) is an important nuclear receptor that regulates glycolipid metabolism, including three subtypes: α, β/δ and γ. Peroxisome proliferator-activated receptor γ coactivator 1α (PGC-1α) is its auxiliary transcriptional activator. Acyl-CoA oxidase 1 (ACOX1) is the first rate-limiting enzyme for fatty acid β oxidation. Fatty acid binding protein 1 (FABP1) is highly expressed in liver, and can bind fatty acid, heme and other molecules to reduce their toxicity and damage. Up-regulating the expression level of these genes helps to improve the body's metabolism, and their agonists are an important class of anti-metabolic drugs. After the compound of the present application (1 μM) and the control drug gemfibrozil (1 μM) were incubated with human liver cancer cells HepG2 for 6 hours, real-time fluorescent quantitative PCR method was used to determine the relative expression of mRNA of related genes in the cells.
The company which synthesized the primers was Suzhou Hongxun Biotechnology Co., Ltd. Tranzol reagent (Tranzol total RNA extraction reagent, TransGen Biotech) was used to extract total RNA from tissues. 5× All-In-One RT MasterMix reverse transcription kit (Abcam, USA) and real-time quantitative PCR Master Mix (Aidlab Biotechnologies Co., Ltd) were used. Bio-Rad CFX Connect™ Real-Time PCR Detection System for qPCR was used, and 2^−ΔΔCT method was used for data analysis. The expression level of mRNA in the normal control group was set to 1, and the relative expression level of mRNA in the administration group was calculated, so as to confirm whether the active compound affected the PPAR pathway, thereby further regulating lipid metabolism.

[1] = test system: antioxidant response element (ARE); assay: ARE luciferase reporter gene activity in HepG2 cells; format: cell-based, human; details: 50 μM, HepG2 stably transfected (FIG. 4)
Protocol: NF-κB was the most important inflammatory signal pathway. SW480 human colon cancer cells stably transfected with a luciferase reporter gene driven by NF-κB were used to determine the effects of the compound of the present application and the control drug gemfibrozil on NF-κB transcriptional activity, which comprised the following steps. • (1) Cells stably transfected with NF-κB Luc were cultivated to exponential growth, inoculated at a culture medium concentration of 1×10^5/[…] in a 24-well plate, and cultured for 24 hours, the medium was discarded, and the test compound or gemfibrozil formulated with serum-free medium at 50 μM were added to the 24-well plate and incubation was continued for 6 hours. After washing once with 200 μL of PBS, 100 μL of reporter gene cell lysis buffer was added, the cells were lysed on ice for 10 minutes, and the cell lysate was collected by pipetting. • (2) After centrifugation was performed at 8000 rpm and 4° C. for 10 min, the supernatant was pipetted for fluorescence assay. • (3) The measurement gap time of chemiluminescence analyzer was set to 2 s and the measurement time was set to 10 s. Automatic sample injection was adopted, 50 μL of luciferase assay reagent was added to each well. The reporter gene cell lysis buffer was used as a blank control. • (4) After centrifugation, the supernatant was taken, and the BCA method was used to determine the protein concentration so as to normalize the reporter gene results.
In this experimental example, the luciferase activity in HepG2 human liver cancer cells stably transfected with a luciferase reporter gene driven by antioxidant response element (ARE) was determined to evaluate the regulatory effects of the compound of the present application and gemfibrozil on the transcriptional activity of transcription factor Nrf2 and the cellular oxidative stress response signals, in which the operation process of the reporter gene assay was the same as that of Experimental Example 2.2.

[2] = test system: RAW264.7 mouse macrophages; assay: Determination of NO generation induced by LPS; format: cell-based; details: 10 μM, 1 μg/mL LPS, 24 hours, RAW264.7 (FIG. 2)
Protocol: The results are expressed as the multiple of the NO content in the cell culture supernatant of the administration group (10 μM) as compared with that in the cell culture supernatant of the control group (DMSO group), in which compared with the control group, *P<0.05, **P<0.01, ***P<0.001.
NO is a reactive nitrogen species (RNS) and an important gas signal molecule. Macrophages could convert arginine into NO which participated in the body's inflammatory response. Therefore, determination of inhibitory activity of a drug on NO generation was one of the classic methods to evaluate drug's anti-inflammatory ability. RAW264.7 cells at exponential growth phase were inoculated into a 96-well plate at 1×10^4 cells/200 μL. well of medium. After adherence, the medium was discarded, and the cells were subjected to drug treatments. Normal group (serum-free medium), LPS model group (serum-free medium containing 1 μg/mL LPS), LPS+drug group (serum-free medium containing 1 μg/mL LPS, 10 μM gemfibrozil or the compound of the present application) were established, and 3 repeated wells were set for each group. After 24 hours incubation in incubator, cell supernatant of each well was collected and assay was performed according to the instructions of NO determination kit (Nanjing Jiancheng). The absorbance value of each well at wavelength of 540 nm was read and NO content was calculated.

With `Cc1cc(OCCCC(C)(C)C(=O)O)c(C)cc1F` [BJMU-3, 5-(4-fluoro-2,5-dimethylphenoxy)-2,2-dimethylpentanoic acid] the “ACOX1 mRNA expression” value (ACOX1) was “significantly induced ACOX1 mRNA expression”, the “ARE reporter gene activity” value [1] was “could significantly activate the ARE reporter gene activity” and the “NO generation induced by LPS” value [2] was “could inhibit NO generation”.

With `Cc1ccc(C)c(OCCCC(C)(C)C(=O)O)c1` [gemfibrozil, Gemfibrozil, reference compound] the “ACOX1 mRNA expression” value (ACOX1) was “could not activate ACOX1 expression”, the “ARE reporter gene activity” value [1] was “did not obviously activate the ARE” and the “NO generation induced by LPS” value [2] was “did not have an activity of inhibiting NO generation”.

With `Cc1cc(OCCCC(C)(C)C(=O)O)c(C)cc1Br` [BJMU-2, 5-(4-bromo-2,5-dimethylphenoxy)-2,2-dimethylpentanoic acid] the “ACOX1 mRNA expression” value (ACOX1) was “significantly induced ACOX1 mRNA expression”, the “ARE reporter gene activity” value [1] was “could significantly activate the ARE reporter gene activity” and the “NO generation induced by LPS” value [2] was “could inhibit NO generation”.

In the case of `Cc1cc(OCCCC(C)(C)C(=O)O)c(C)cc1Cl` [BJMU-1, 5-(4-chloro-2,5-dimethylphenoxy)-2,2-dimethylpentanoic acid], the “ACOX1 mRNA expression” value (ACOX1) is reported as “significantly induced ACOX1 mRNA expression”, the “ARE reporter gene activity” value [1] is reported as “could significantly activate the ARE reporter gene activity” and the “NO generation induced by LPS” value [2] is reported as “could inhibit NO generation”.
